The text below walks through data of ChEMBL document CHEMBL1125966, “Synthesis and pharmacological evaluation of combined thromboxane receptor antagonist/synthase inhibitors: pyridine-containing sulphonamido acids” (Bioorg Med Chem Lett, 1991).

In series [1] the target is T1, Thromboxane A2 receptor (Rattus norvegicus, UniProt P34978).
T1 sequence (P34978 whole entry): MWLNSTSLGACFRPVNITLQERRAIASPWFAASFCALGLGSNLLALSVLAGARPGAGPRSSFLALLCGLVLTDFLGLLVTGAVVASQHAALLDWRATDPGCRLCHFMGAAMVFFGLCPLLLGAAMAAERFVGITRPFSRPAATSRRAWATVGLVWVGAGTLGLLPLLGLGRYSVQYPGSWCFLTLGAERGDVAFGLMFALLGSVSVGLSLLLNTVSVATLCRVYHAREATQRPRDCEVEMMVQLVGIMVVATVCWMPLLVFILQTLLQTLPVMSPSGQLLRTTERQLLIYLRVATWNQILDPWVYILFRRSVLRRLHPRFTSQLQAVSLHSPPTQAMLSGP
Description: In vitro thromboxane A2 receptor antagonism through inhibition of U-46619 induced contraction of rat isolated thoracic aortic strip. The format is functional. The conditions noted are these: read-out: pA2 (converted).

Series [2] concerns the target T2, Thromboxane A2 receptor (Homo sapiens, UniProt P21731).
T2 sequence (P21731 whole entry): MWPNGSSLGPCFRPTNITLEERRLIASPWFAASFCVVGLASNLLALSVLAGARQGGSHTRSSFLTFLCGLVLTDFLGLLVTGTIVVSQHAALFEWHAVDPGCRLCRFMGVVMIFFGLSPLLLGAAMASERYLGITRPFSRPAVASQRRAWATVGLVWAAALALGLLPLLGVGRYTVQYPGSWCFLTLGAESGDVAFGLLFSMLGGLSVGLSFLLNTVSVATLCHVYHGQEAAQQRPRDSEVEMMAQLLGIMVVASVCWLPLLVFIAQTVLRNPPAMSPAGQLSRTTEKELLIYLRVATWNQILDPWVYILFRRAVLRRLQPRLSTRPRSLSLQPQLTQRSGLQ
The experiment in a line: In vitro thromboxane A2 receptor antagonism through inhibition of U-46619 induced platelet aggregation in human whole blood. The format is functional, tissue-based. The settings on record: read-out: pA2 (converted).

The next series deals with T3, Thromboxane-A synthase (Homo sapiens, UniProt P24557).
T3 sequence (P24557 whole entry): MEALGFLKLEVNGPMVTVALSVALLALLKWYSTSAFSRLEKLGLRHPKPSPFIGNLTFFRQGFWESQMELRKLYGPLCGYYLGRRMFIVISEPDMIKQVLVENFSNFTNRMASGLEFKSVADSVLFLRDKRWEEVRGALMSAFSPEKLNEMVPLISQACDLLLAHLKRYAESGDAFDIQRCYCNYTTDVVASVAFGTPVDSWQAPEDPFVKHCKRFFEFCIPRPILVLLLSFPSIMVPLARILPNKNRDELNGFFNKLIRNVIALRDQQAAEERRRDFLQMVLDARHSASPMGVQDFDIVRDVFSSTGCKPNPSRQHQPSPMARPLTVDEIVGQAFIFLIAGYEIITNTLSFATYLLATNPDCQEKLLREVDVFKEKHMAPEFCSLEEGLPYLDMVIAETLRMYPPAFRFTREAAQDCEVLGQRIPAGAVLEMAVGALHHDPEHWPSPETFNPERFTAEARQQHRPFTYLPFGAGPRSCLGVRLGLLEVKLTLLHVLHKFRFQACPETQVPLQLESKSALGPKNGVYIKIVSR
Description: In vitro inhibition of collagen-induced thromboxane A2 production in human whole blood. The format is functional, tissue-based.

A short description of series [3]: The half life period was determined. The format is ADME.
The test system of series [4] is Canis familiaris. The experiment in a line: Tested ex vivo for the percent inhibition of serum TXA2 production with collagen-induced platelet aggregation in conscious dog at dosage of 10 mg/kg for 12 to 24 h. The format is functional. The settings on record: Canis lupus familiaris.
Series [5] deals with Canis familiaris. Description: Tested ex vivo for the percent inhibition of serum TXA2 production with collagen-induced platelet aggregation in anasthetised dog after administration at a dose of 10 ug/kg/min. The format is functional. The conditions noted are these: Canis lupus familiaris.

Broadly, the IC50 is the concentration needed to halve the response being measured. Low values mean greater potency in that assay, high ones weaker potency in that assay. For orientation: half-life means the time needed for the level to fall by half in the phase considered. Read a high half-life as slow decline. The term inhibition in vivo denotes the share of the control response that was lost under treatment. High values mean strong suppression, low ones little suppression.

As for `O=C(O)CCC/C=C(/c1cccnc1)c1cccc(CCNS(=O)(=O)c2ccccc2)c1`, the Kb is 15.8 nM at Thromboxane A2 receptor [1] and 794 nM on Thromboxane A2 receptor [2]. In addition, the IC50 at Thromboxane-A synthase was 50.1 nM.
Regarding `O=C(O)CCCCO/N=C(/c1cccnc1)c1cccc(CCNS(=O)(=O)c2ccc(I)cc2)c1`, the half-life in series [3] is under 30 min. For the same molecule, the Kb at Thromboxane A2 receptor [1] is 200 nM; on Thromboxane A2 receptor [2], 2000 nM. 200 nM corresponded to half-maximal inhibition against Thromboxane-A synthase (IC50).
As to `O=C(O)CO/N=C(/c1cccnc1)c1cccc(CCNS(=O)(=O)c2ccc(I)cc2)c1`, the Kb at Thromboxane A2 receptor [1] is 1.58 nM; at Thromboxane A2 receptor [2], 200 nM. For the same molecule, the IC50 against Thromboxane-A synthase was over 1000 nM.
For `O=C(O)CCC/C=C(/c1cccnc1)c1cccc(CCNS(=O)(=O)c2ccc(Cl)c(Cl)c2)c1` the same measures were 63.1 nM, 316 nM and 63.1 nM.
In series [3], `CC(C)(CNS(=O)(=O)c1ccc(I)cc1)c1cccc(/C(=N\OCCC(=O)O)c2cccnc2)c1` showed a half-life of under 30 min. The Kb is 2 nM on Thromboxane A2 receptor [1] and 316 nM at Thromboxane A2 receptor [2]. On Thromboxane-A synthase, the midpoint of inhibition, the IC50, lay at 200 nM.
With `O=C(O)CCO/N=C(/c1cccnc1)c1cccc(CCNS(=O)(=O)c2ccc(I)cc2)c1`, the half-life in series [3] is under 30 min. Also, the results for the Kb on Thromboxane A2 receptor [1] and at Thromboxane A2 receptor [2] were 0.631 nM and 100 nM, respectively. This molecule also showed an IC50 at Thromboxane-A synthase of 501 nM.
For the molecule `O=C(O)CCCC/C=C(/c1cccnc1)c1cccc(CCNS(=O)(=O)c2ccc(I)cc2)c1`, the Kb was 10 nM on Thromboxane A2 receptor [1] and 794 nM on Thromboxane A2 receptor [2]. This molecule gave an IC50 at Thromboxane-A synthase of 20 nM.
In turn, `CC(C)(CNS(=O)(=O)c1ccc(I)cc1)c1cccc(/C(=C\CCCC(=O)O)c2cccnc2)c1` registered an inhibition in vivo at 10 mg/kg in the series on Canis familiaris [4] of over 90%. Also, the Kb is 0.631 nM at Thromboxane A2 receptor [1] and 200 nM at Thromboxane A2 receptor [2]. Further, the inhibition in vivo at 10 µg/kg/min in the series on Canis familiaris [5] is over 98%. This molecule also gave an IC50 at Thromboxane-A synthase of 31.6 nM.
Consider `O=C(O)CCC/C=C(/c1cccnc1)c1cccc(CCNS(=O)(=O)c2ccc([N+](=O)[O-])cc2)c1`, for which the Kb on Thromboxane A2 receptor [1] was 3.98 nM; on Thromboxane A2 receptor [2], 631 nM. At Thromboxane-A synthase, 39.8 nM corresponded to half-maximal inhibition (IC50).
In turn, `O=C(O)CCCO/N=C(/c1cccnc1)c1cccc(CCNS(=O)(=O)c2ccc(I)cc2)c1` returned a half-life in series [3] of under 30 min. The Kb at Thromboxane A2 receptor [1] is 12.6 nM; on Thromboxane A2 receptor [2] it was 1580 nM. On Thromboxane-A synthase, this molecule gave an IC50 of 200 nM.
As to `O=C(O)CCC/C=C(/c1cccnc1)c1cccc(CCNS(=O)(=O)c2ccccc2[N+](=O)[O-])c1`, the results for the Kb at Thromboxane A2 receptor [1] and at Thromboxane A2 receptor [2] were 200 nM and 1000 nM, respectively. At Thromboxane-A synthase, this molecule showed an IC50 of 50.1 nM.
For `O=C(O)CC/C=C(/c1cccnc1)c1cccc(CCNS(=O)(=O)c2ccccc2)c1` the same measures were 31.6 nM, 7940 nM and 79.4 nM.
Regarding `O=C(O)CCC/C=C(/c1cccnc1)c1cccc(CCNS(=O)(=O)c2ccc(I)cc2)c1`, the figures for the Kb at Thromboxane A2 receptor [1] and at Thromboxane A2 receptor [2] were 1 nM and 631 nM, respectively. The inhibition in vivo at 10 µg/kg/min in the series with Canis familiaris [5] was over 98%. The molecule also showed an IC50 against Thromboxane-A synthase of 31.6 nM.
`O=C(O)CCC/C=C(/c1cccnc1)c1cccc(CCNS(=O)(=O)c2ccc(F)cc2)c1`: the results for the Kb on Thromboxane A2 receptor [1] and on Thromboxane A2 receptor [2] were 25.1 nM and 794 nM, respectively. Moreover, inhibition on Thromboxane-A synthase was half-maximal at 31.6 nM (IC50).
Turning to `O=C(O)CCC/C=C(/c1cccnc1)c1cccc(CCCNS(=O)(=O)c2ccccc2)c1`, the Kb is 126 nM at Thromboxane A2 receptor [1] and 1000 nM on Thromboxane A2 receptor [2]. Also, the IC50 at Thromboxane-A synthase was 50.1 nM.
For the molecule `O=C(O)CCCCO/N=C(/c1cccnc1)c1cccc(C(F)(F)F)c1` [RIDOGREL], in series [3], the half-life is under 30 min.
